Measurements reported in patent US9096615B2, “Bridged bicyclic amino thiazine dioxide compounds as inhibitors of beta-secretase and methods of use thereof” (AMGEN INC., priority 2013, dated 2015).

Key:
Cathepsin D (Cat D) = target: T1, Cathepsin D (Cat D) (Homo sapiens, UniProt P07339); test: In vitro enzymatic Cathepsin D (Cat D) FRET assay; assay type: biochemical; conditions: average IC50; first procedure; read-out: CatD IC50
T1 construct: made in house; host or cells: CHO cells
In short: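 Fluorescence (500 nm excitation, 580 nm emission) was measured after Tris quench of a 1 h cleavage of 20 nM quenched peptide substrate. Before that, 9 nM CHO-expressed human Cat D sat with compound for 1 h at pH 3.5 (0.05 M citrate, 5 mM CHAPS, 10% DMSO final).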

human Bace2 protein = target: T2, human Bace2 protein (Homo sapiens, UniProt Q9Y5Z0); test: In vitro enzymatic BACE2 FRET assay; assay type: biochemical; conditions: average IC50; read-out: BACE2 Enzyme assay IC50
T2 construct: V5 (C); 6-His (C)
T2 sequence (Q9Y5Z0 63-518): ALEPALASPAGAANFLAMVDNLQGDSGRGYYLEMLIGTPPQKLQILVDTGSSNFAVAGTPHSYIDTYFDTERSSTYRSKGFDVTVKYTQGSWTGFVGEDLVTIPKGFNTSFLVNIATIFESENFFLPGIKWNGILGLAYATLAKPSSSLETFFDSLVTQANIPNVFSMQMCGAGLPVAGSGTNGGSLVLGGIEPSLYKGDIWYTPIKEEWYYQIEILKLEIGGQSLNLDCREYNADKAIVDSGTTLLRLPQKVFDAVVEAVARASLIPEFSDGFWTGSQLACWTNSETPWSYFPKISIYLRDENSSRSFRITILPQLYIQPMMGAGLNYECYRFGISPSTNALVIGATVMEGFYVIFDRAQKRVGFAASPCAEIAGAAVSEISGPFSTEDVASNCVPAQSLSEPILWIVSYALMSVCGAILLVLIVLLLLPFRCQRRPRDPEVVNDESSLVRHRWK
Protocol: In Vitro Enzymatic BACE2 FRET (Fluorescence Resonance Energy Transfer) Assay
Enzyme Assay Data in the Table 3
The assay buffer used in this screen is 0.05 M acetate, pH 4.2, 10% DMSO final, 100 uM genapol (which is a nonionic detergent, below its Critical Micelle Concentration). The Beta Secretase2 enzyme (human Bace2 protein with C-terminal V5 and 6-His tag; 0.2 nM) is pre-incubated for one hour with inhibitors, typically in about 1 uL of DMSO according to a serial dilution, are added thereto. This assay is effectively started by the addition of FRET substrate (50 nM) and the combination is incubated for one hour. Final assay concentration of about 0.64 nM. The FRET assay is terminated with by addition of Tris buffer, which raises the pH to neutrality, and the fluorescence is determined. The FRET substrate is a peptide with commercially available fluorophore and quencher, on opposite sides of the BACE cleavage site. Proteolytic cleavage of the FRET substrate releases quenching of fluorescence (excitation 488 nm and […]).

BACE1 = BACE1 (Homo sapiens, UniProt P56817); test: In vitro enzymatic BACE FRET assay; assay type: biochemical; conditions: average IC50; read-out: BACE1 Enzyme assay IC50
In short: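 Fluorescence (excitation 488 nm, […]) from cleavage of quenched peptide substrate (50 nM), reaction run 1 h after 1 h enzyme–inhibitor pre-incubation, then neutralised with Tris. Conditions: 0.2 nM enzyme, pH 4.2 acetate 0.05 M, 10% DMSO final, 100 uM genapol.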

[1] = system: Aβ40 in conditioned medium of cells stably expressing Amyloid Precursor Protein (APP); test: In vitro BACE cell-based assay (HEK cell assay, Aβ40 sandwich ELISA); conditions: Homo sapiens, HEK293; average IC50; read-out: BACE1 cell assay IC50
In short: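 IC50 was derived from percent-of-control Aβ40 against concentration, with Aβ40 quantified by time-resolved fluorescence ELISA (pAb40/6E10-biotin, 4 °C incubations). Supernatants were sampled after 24 h of compound exposure (10 points, starting 100 or 10 μM, 0.1% DMSO) of cells stably expressing APP.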

T1 sequence (P07339 65-412, species assumed): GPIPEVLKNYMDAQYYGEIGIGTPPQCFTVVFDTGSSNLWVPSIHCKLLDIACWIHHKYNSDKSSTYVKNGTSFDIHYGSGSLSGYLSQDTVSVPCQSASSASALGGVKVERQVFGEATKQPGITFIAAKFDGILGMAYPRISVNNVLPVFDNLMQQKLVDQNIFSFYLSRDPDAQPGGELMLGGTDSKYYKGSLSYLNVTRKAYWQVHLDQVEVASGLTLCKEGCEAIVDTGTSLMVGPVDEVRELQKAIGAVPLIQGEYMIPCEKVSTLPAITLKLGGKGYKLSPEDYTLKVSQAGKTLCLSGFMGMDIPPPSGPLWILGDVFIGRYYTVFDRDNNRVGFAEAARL
Chain of BACE1 (P56817 46-501, species assumed): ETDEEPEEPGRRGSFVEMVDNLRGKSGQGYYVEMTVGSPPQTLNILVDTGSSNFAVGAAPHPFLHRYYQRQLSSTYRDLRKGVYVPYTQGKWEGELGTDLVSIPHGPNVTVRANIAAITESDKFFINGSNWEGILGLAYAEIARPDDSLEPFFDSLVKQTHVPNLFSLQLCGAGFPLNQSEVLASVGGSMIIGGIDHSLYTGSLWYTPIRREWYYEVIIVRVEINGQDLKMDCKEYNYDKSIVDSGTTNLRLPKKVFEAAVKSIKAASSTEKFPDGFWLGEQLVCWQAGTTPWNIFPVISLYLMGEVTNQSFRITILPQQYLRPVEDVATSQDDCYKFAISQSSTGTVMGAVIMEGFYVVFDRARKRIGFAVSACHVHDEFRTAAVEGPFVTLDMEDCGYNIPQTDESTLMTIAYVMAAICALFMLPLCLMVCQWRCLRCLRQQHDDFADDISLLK

SMILES | IC50 (Cathepsin D (Cat D)) | IC50 (human Bace2 protein) | IC50 (BACE1) | IC50 [1]
Cc1cc(Cl)cnc1C(=O)Nc1ccc(F)c([C@@]2(CF)N=C(N)[C@@]3(C)CC[C@@H]2S3(=O)=O)c1 (single isomer, unassigned) [Example 118] | > 400 µM | 0.002 µM | 0.017 µM | 0.062 µM
COc1cnc(C(=O)Nc2ccc(F)c([C@@]3(C)N=C(N)[C@@]4(CF)CC[C@@H]3S4(=O)=O)c2)c(F)c1 [Example 43, N-(3-((1S,2R,5R)-4-amino-5-(fluoromethyl)-2-methyl-8,8-dioxido-8-thia-3-azabicyclo[3.2.1]oct-3-en-2-yl)-4-fluorophenyl)-3-fluoro-5-methoxy-2-pyridinecarboxamide] | > 400 µM | 0.014 µM | 0.009 µM | 0.007 µM
C#CC(C)(C)Oc1cnc(C(=O)Nc2ccc(F)c([C@@]3(C)N=C(N)[C@@]4(CF)CC[C@@H]3S4(=O)=O)c2)cn1 [Example 44, N-(3-((1S,2R,5R)-4-amino-5-(fluoromethyl)-2-methyl-8,8-dioxido-8-thia-3-azabicyclo[3.2.1]oct-3-en-2-yl)-4-fluorophenyl)-5-((1,1-dimethyl-2-propyn-1-yl)oxy)-2-pyrazinecarboxamide] | > 400 µM | 0.283 µM | 0.034 µM | 0.153 µM
C#CCOc1cnc2c(Nc3ccc(F)c([C@@]4(C)N=C(N)[C@@]5(CF)CC[C@@H]4S5(=O)=O)c3)nccc2n1 [Example 46, N-(3-((1S,2R,5R)-4-amino-5-(fluoromethyl)-2-methyl-8,8-dioxido-8-thia-3-azabicyclo[3.2.1]oct-3-en-2-yl)-4-fluorophenyl)-2-(2-propyn-1-yloxy)pyrido[3,4-b]pyrazin-5-amine] | 1000 µM | 0.009 µM | 0.001 µM | 0.005 µM
C[C@]1(c2cc(Nc3ncc(F)c4cc(C#N)cnc34)ccc2F)N=C(N)[C@@]2(CF)CC[C@@H]1S2(=O)=O [Example 53, 8-((3-((1S,2R,5R)-4-amino-5-(fluoromethyl)-2-methyl-8,8-dioxido-8-thia-3-azabicyclo[3.2.1]oct-3-en-2-yl)-4-fluorophenyl)amino)-5-fluoro-1,7-naphthyridine-3-carbonitrile] | > 14.8 µM | 0.002 µM | 0.003 µM | 0.038 µM
C[C@]1(c2cc(Nc3nccc4nc(C(F)(F)F)cnc34)ccc2F)N=C(N)[C@@]2(CF)CC[C@@H]1S2(=O)=O [Example 55, N-(3-((1S,2R,5R)-4-amino-5-(fluoromethyl)-2-methyl-8,8-dioxido-8-thia-3-azabicyclo[3.2.1]oct-3-en-2-yl)-4-fluorophenyl)-2-(trifluoromethyl)pyrido[3,4-b]pyrazin-5-amine] | > 133 µM | 0.024 µM | 0.018 µM | 0.351 µM
Cc1nc(OCC(F)(F)F)cnc1C(=O)Nc1ccc(F)c([C@@]2(C)N=C(N)[C@@]3(CF)CC[C@@H]2S3(=O)=O)c1 [Example 57, N-(3-((1S,2R,5R)-4-amino-5-(fluoromethyl)-2-methyl-8,8-dioxido-8-thia-3-azabicyclo[3.2.1]oct-3-en-2-yl)-4-fluorophenyl)-3-methyl-5-(2,2,2-trifluoroethoxy)-2-pyrazinecarboxamide] | > 400 µM | 0.076 µM | 0.003 µM | 0.048 µM
C#CCOc1cnc(C(=O)Nc2ccc(F)c([C@@]3(C)N=C(N)[C@@]4(CF)CC[C@@H]3S4(=O)=O)c2)c(Cl)c1 [Example 60, N-(3-((1S,2R,5R)-4-amino-5-(fluoromethyl)-2-methyl-8,8-dioxido-8-thia-3-azabicyclo[3.2.1]oct-3-en-2-yl)-4-fluorophenyl)-3-chloro-5-(2-propyn-1-yloxy)-2-pyridinecarboxamide] | 953 µM | 0.01 µM | 0.001 µM | 0.008 µM
CC#CCOc1cnc2c(Nc3ccc(F)c([C@@]4(C)N=C(N)[C@]5(C)CC[C@H]4S5(=O)=O)c3)nccc2n1 [Example 63, N-(3-((1R,2R,5S)-4-amino-2,5-dimethyl-8,8-dioxido-8-thia-3-azabicyclo[3.2.1]oct-3-en-2-yl)-4-fluorophenyl)-2-(2-butyn-1-yloxy)pyrido[3,4-b]pyrazin-5-amine] | 1180 µM | 0.321 µM | 0.003 µM | 0.002 µM

The remaining lines, values ahead:

IC50 (Cathepsin D (Cat D)) | IC50 (human Bace2 protein) | IC50 (BACE1) | IC50 [1] | SMILES
437 µM | 0.011 µM | 0.004 µM | 0.031 µM | CC(C)(C)C#CCOc1cnc(C(=O)Nc2ccc(F)c([C@@]3(C)N=C(N)C4(CF)CCC3S4(=O)=O)c2)cn1 (stereo in doubt) [Example 38, N-(3-((1S,2R,5R)-4-Amino-5-(fluoromethyl)-2-methyl-8,8-dioxido-8-thia-3-azabicyclo[3.2.1]oct-3-en-2-yl)-4-fluorophenyl)-5-((4,4-dimethylpent-2-yn-1-yl)oxy)pyrazine-2-carboxamide]
596 µM | 0.019 µM | 0.003 µM | 0.003 µM | C#C[C@H](C)Oc1cnc(C(=O)Nc2ccc(F)c([C@@]3(C)N=C(N)[C@@]4(CF)CC[C@@H]3S4(=O)=O)c2)cn1 [Example 45, N-(3-((1S,2R,5R)-4-amino-5-(fluoromethyl)-2-methyl-8,8-dioxido-8-thia-3-azabicyclo[3.2.1]oct-3-en-2-yl)-4-fluorophenyl)-5-(((1S)-1-methyl-2-propyn-1-yl)oxy)-2-pyrazinecarboxamide]
174 µM | 0.002 µM | 0.007 µM | 0.036 µM | C[C@]1(c2cc(Nc3ncnc4cc(Br)cnc34)ccc2F)N=C(N)[C@@]2(CF)CC[C@@H]1S2(=O)=O [Example 47, N-(3-((1S,2R,5R)-4-amino-5-(fluoromethyl)-2-methyl-8,8-dioxido-8-thia-3-azabicyclo[3.2.1]oct-3-en-2-yl)-4-fluorophenyl)-7-bromopyrido[3,2-d]pyrimidin-4-amine]
755 µM | 0.002 µM | 0.002 µM | 0.09 µM | C[C@]1(c2cc(Nc3ncc(F)c4cc(Cl)cnc34)ccc2F)N=C(N)[C@@]2(CF)CC[C@@H]1S2(=O)=O [Example 54, N-(3-((1S,2R,5R)-4-amino-5-(fluoromethyl)-2-methyl-8,8-dioxido-8-thia-3-azabicyclo[3.2.1]oct-3-en-2-yl)-4-fluorophenyl)-3-chloro-5-fluoro-1,7-naphthyridin-8-amine]
342 µM | 0.002 µM | 0.001 µM | 0.046 µM | C[C@]1(c2cc(Nc3nccc4cc(Cl)cnc34)ccc2F)N=C(N)[C@@]2(CF)CC[C@@H]1S2(=O)=O [Example 58, N-(3-((1S,2R,5R)-4-amino-5-(fluoromethyl)-2-methyl-8,8-dioxido-8-thia-3-azabicyclo[3.2.1]oct-3-en-2-yl)-4-fluorophenyl)-3-chloro-1,7-naphthyridin-8-amine]
124 µM | 0.007 µM | 0.001 µM | 0.001 µM | CC#CCOc1cnc2c(Nc3ccc(F)c([C@@]4(C)N=C(N)[C@@]5(C)CC[C@@H]4S5(=O)=O)c3)nccc2n1 [Example 62, N-(3-((1S,2R,5R)-4-amino-2,5-dimethyl-8,8-dioxido-8-thia-3-azabicyclo[3.2.1]oct-3-en-2-yl)-4-fluorophenyl)-2-(2-butyn-1-yloxy)pyrido[3,4-b]pyrazin-5-amine]
